Source: US8642532B2, “Excipients for protein stabilization” (priority 2007, dated 2014)

Legend:
BSA [1] = target: T1, BSA (Bos taurus, UniProt P02769); experiment: Reduction of aggregation of BSA induced by methanol, SEC HPLC; format: physicochemical, Bovine; conditions: precipitated with PEG 3400 and methanol, re-dissolved in PBS
T1 construct: BSA stock solution (35%, in water, 0.85% sodium chloride, from Sigma); purchased Sigma / Sigma Aldrich
Protocol: BSA stock solution (0.050 ml, 35%, 0.85% sodium chloride, Sigma) was diluted with 0.050 ml of sodium phosphate buffer (50 mM, pH 7.4, no sodium chloride) and 0.050 ml of water (HPLC grade). A separate sample was prepared in the same way, but replacing the 0.050 ml of water using 0.050 ml of an excipient solution containing pyridoxal phosphate (represented as X2 in FIG. 1, 100 mg/ml in water, pH 7.4). To each of the two samples in test tubes were added 0.350 ml of an aqueous solution of polyethylene glycol (molecular weight 3400, 75%) to turn the mixtures cloudy, followed by addition of 0.50 ml of methanol (HPLC grade). Then the samples were centrifuged to collect the precipitates. The precipitates were re-dissolved in PBS buffer and analyzed on Size Exclusion Chromatography HPLC. Without excipient, about two thirds of BSA was found in the form of aggregates, while only a quarter of BSA appeared as aggregate in the samples using excipient pyridoxal phosphate.

BSA [2] = target: T1, BSA; experiment: Reduction of aggregation of BSA induced by t-butanol, SEC HPLC; format: physicochemical, Bovine; conditions: BSA precipitated with t-butanol, re-dissolved in PBS
Protocol: To three separate test tubes containing 0.050 ml of BSA (35%, 0.85% sodium chloride) and 0.050 ml of phosphate buffer (50 mM, pH 7.4), were respectively added 0.010 ml of water, 0.010 mll of 2-formylbenzenesulfonic acid sodium salt (75 mg/ml, pH 8), and 0.010 ml of pyridoxal phosphate (100 mg/ml, pH 7.4). To each of the three tubes were then added 0.50 ml of PEG solution (75%, molecular weight 3400) followed by centrifugation to give some precipitate. The three supernatants were collected to have BSA at saturated concentrations, and to them were separately added 0.50 ml of t-butanol to have more BSA precipitates after centrifugation. The crops of precipitates from t-butanol were washed with t-butanol twice (0.75 ml each) and re-dissolved in PBS buffer (50 mM sodium phosphate, pH 7.4, 0.85% sodium chloride) for SEC HPLC analysis. Plain BSA produced about 75% of aggregates, the sample with 2-formylbenzenesulfonic acid produced about 60% of aggregates, the sample with pyridoxal phosphate produced less than 50% of aggregates.

zinc-free bovine insulin = target: T2, zinc-free bovine insulin (Bos taurus, UniProt P01317); experiment: Inhibition of insulin fibrillation by pyridoxal phosphate, rotator at 39° C.; format: physicochemical
T2 construct: A solution of zinc-free bovine insulin was prepared in phosphate buffer
T2 sequence (P01317 25-54 limits assumed): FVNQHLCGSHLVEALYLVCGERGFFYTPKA
T2 sequence (P01317 85-105 limits assumed): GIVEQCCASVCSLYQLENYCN
Protocol: A solution of zinc-free bovine insulin was prepared in phosphate buffer (50 mM, pH 7.4, no sodium chloride) at concentration of 1.2 mg/ml. Two aliquots of 2.0 ml each were transferred into two separate glass tubes (sanitized in boiling water), and 0.10 ml of water was added to one tube, and 0.10 ml of pyridoxal phosphate (100 mg/ml, in water, pH 7.4) was added to the other. Both tubes were capped and put on a rotator (12 rotations per minute) in an oven at temperature of 39° C.
A solution of zinc-free bovine insulin was prepared in phosphate buffer (50 mM, pH 7.0, no sodium chloride) at concentration of 1.2 mg/ml. Two aliquots of 2.0 ml each were transferred into two separate glass tubes (sanitized in boiling water), and 0.10 ml of water was added to each tube. To 4.0 ml of the insulin solution was added 0.20 ml of pyridoxal phosphate (100 mg/ml, in water, pH 7.4) and the pH was adjusted to 7.0, and divided into two separate glass tubes (sanitized in boiling water). All the four tubes were capped and put on a rotator (12 rotations per minute) in an oven at temperature of 39° C.
A solution of zinc-free bovine insulin (50 mg) was dissolved in 0.50 ml of 0.1 N hydrochloric acid, and neutralized using 0.1 N sodium hydroxide until it turned cloudy and clear again. Then 0.667 ml of pyridoxal phosphate solution (167 mg/ml, pH 7.0 in water) was added to the insulin solution, and the pH was re-adjusted to 7.4 using dilute sodium hydroxide. The total volume was adjusted to 2.5 ml with HPLC grade water. Serial dilution using water provided four samples (1.0 ml each) of insulin concentrations at 2.0, 5.0, 10, 15 mg/ml. All the four samples in glass vials, together with 0.5 ml of the remaining insulin-pyridoxal phosphate solution (20 mg/ml) were capped and put on a rotator (12 rotations per minute) in an oven at temperature of 39° C.

T1 sequence (P02769 25-607): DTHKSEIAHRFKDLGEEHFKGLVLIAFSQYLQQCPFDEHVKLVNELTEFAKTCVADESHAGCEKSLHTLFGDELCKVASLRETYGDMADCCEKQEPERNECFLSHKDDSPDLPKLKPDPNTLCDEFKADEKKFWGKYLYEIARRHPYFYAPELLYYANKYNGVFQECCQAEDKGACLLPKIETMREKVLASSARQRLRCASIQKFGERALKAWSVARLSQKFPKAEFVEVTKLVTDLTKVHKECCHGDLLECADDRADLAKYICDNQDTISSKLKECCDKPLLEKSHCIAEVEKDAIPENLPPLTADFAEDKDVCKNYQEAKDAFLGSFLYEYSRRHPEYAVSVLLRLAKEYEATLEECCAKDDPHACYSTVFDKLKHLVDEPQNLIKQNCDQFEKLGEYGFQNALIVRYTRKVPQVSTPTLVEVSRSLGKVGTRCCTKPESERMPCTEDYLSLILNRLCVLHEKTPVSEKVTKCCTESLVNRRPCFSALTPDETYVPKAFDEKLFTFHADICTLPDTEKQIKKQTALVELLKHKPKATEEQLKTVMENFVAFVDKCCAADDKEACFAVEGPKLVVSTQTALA

- Fraction of BSA appearing as aggregate (BSA [1]): a quarter
- Aggregates produced (BSA [2]): less than 50%
- Appearance of insulin solution (fibrillation) (zinc-free bovine insulin; pH 7.0, insulin 1.2 mg/ml, 0.20 ml pyridoxal phosphate 100 mg/ml in 4.0 ml): still remained clear beyond four weeks
- Appearance of insulin solution (fibrillation) (zinc-free bovine insulin; pH 7.4, insulin 1.2 mg/ml, 0.10 ml pyridoxal phosphate 100 mg/ml in 2.0 ml): still remained clear after five weeks
- Appearance of insulin solution (fibrillation) (zinc-free bovine insulin; pH 7.4, insulin 2.0, 5.0, 10, 15 and 20 mg/ml with pyridoxal phosphate serially diluted): still remained clear after three weeks
Structure (SMILES): Cc1ncc(COP(=O)(O)O)c(C=O)c1O [pyridoxal phosphate]
